Measurements from patent publication US7232912B2, “Indazole compounds, pharmaceutical compositions, and methods for mediating or inhibiting cell proliferation” (Agouron Pharmaceuticals, Inc., priority 2000, dated 2007).
Like-named read-outs stand apart in the source and are kept apart here.

Experiments:
[1] = target: T1, CDK2/cyclin A (Homo sapiens, UniProt P24941); experiment: Inhibition of CDK2/Cyclin A Retinoblastoma Kinase Activity; assay type: biochemical; settings: apparent Ki
T1 construct: made in house; host or cells: CDK2: insect cells (baculovirus); cyclin A: E. coli
Description: (§1) Cyclin-dependent kinase activity was measured by quantifying the enzyme-catalyzed, time-dependent incorporation of radioactive phosphate from [^32P]ATP or [^33P]ATP into a protein substrate. Unless noted otherwise, assays were performed in 96-well plates in a total volume of 50 μL, in the presence of 10 mM HEPES (N-[2-hydroxyethyl]piperazine-N′-[2-ethanesulfonic acid]) (pH 7.4), 10 mM MgCl2, 25 μM adenosine triphosphate (ATP), 1 mg/mL ovalbumin, 5 μg/mL leupeptin, 1 mM dithiothreitol, 10 mM beta-glycerophosphate, 0.1 mM sodium vanadate, 1 mM sodium fluoride, 2.5 mM ethylene glycol-bis(β-aminoethyl ethKer)-N,N,N′N′-tetraacetic acid (EGTA), 2% (v/v) dimethylsulfoxide, and 0.03–0.4 μCi [^32/33P]ATP per reaction. Reactions were initiated with appropriate enzyme, incubated at 30° C., and terminated after 20 minutes by the addition of ethylenediaminetetraacetic acid (EDTA) to 250 mM. The phosphorylated substrate was then captured on a nitrocellulose or phosphocellulose membrane using a 96-well filtration manifold, and unincorporated radioactivity was removed by repeated washing with 0.85% phosphoric acid. Radioactivity was quantified by exposing the dried membranes to a phosphorimager.
(§2) Apparent Ki values were measured by assaying enzyme activity in the presence of different inhibitor compound concentrations and subtracting the background radioactivity measured in the absence of enzyme. Inhibition data were fit to an equation for competitive inhibition using Kaleidagraph (Synergy Software), or were fit to an equation for competitive tight-binding inhibition using the software KineTic (BioKin, Ltd.).
Inhibition of CDK2/Cyclin A Retinoblastoma Kinase Activity
CDK2 was purified using published methodology (Rosenblatt et al., “Purification and Crystallization of Human Cyclin-dependent Kinase 2,” J. Mol. Biol., vol. 230, 1993, pp. 1317–1319) from insect cells that had been infected with a baculovirus expression vector. […] A complex of CDK2 and proteolyzed cyclin A was prepared and purified by gel filtration. The substrate for this assay was the same Rb substrate fragment used for the CDK4 assays, and the methodology of the CDK2/cyclin A and the CDK4/cyclin D3 assays was essentially the same, except that CDK2 was present at 150 nM or 5 nM. Ki values were measured as described above.

[2] = target: CDK4/cyclin D3 (Homo sapiens, UniProt P11802); experiment: Inhibition of CDK4/Cyclin D Retinoblastoma Kinase Activity; assay type: biochemical; settings: apparent Ki
Description: as §1, §2
Inhibition of CDK4/Cyclin D Retinoblastoma Kinase Activity
A complex of human CDK4 and cyclin D3, or a complex of human CDK4 and genetically truncated (1–264) cyclin D3, was purified using traditional biochemical chromatographic techniques from insect cells that had been co-infected with the corresponding baculovirus expression vectors (see e.g., Meijer and Kim, “Chemical Inhibitors of Cyclin-Dependent Kinases,” Methods in Enzymol,. vol. 283 (1997), pp. 113–128.). The enzyme complex (5 or 50 nM) was assayed with 0.3–0.5 μg of purified recombinant retinoblastoma protein fragment (Rb) as a substrate. The engineered Rb fragment (residues 386–928 of the native retinoblastoma protein; 62.3 kDa) contains the majority of the phosphorylation sites found in the native 106-kDa protein, as well as a tag of six histidine residues for ease of purification. Phosphorylated Rb substrate was captured by microfiltration on a nitrocellulose membrane and quantified using a phosphorimager as described above. For measurement of tight-binding inhibitors, the enzyme complex concentration was lowered to 5 nM, and the assay duration was extended to 60 minutes, during which the time-dependence of product formation was linear.

[3] = system: HCT 116 cell line; experiment: Inhibition of Cell Growth (MTT tetrazolium salt assay); assay type: cell-based; settings: Homo sapiens
Description: Inhibition of Cell Growth: Assessment of Cytotoxicity
Inhibition of cell growth was measured using the tetrazolium salt assay, which is based on the ability of viable cells to reduce 3-(4,5-dimethylthiazol-2-yl)-2,5-[2H]-diphenyltetrazolium bromide (MTT) to formazan (Mossman, Journal of Immunological Methods, vol. 65 (1983), pp. 55–58). The water-insoluble purple formazan product was then detected spectrophotometrically. The HCT 116 cell line was grown in 96-well plates. Cells were plated in the appropriate medium at a volume of 135 μl/well in McCoy's 5A Medium. Plates were incubated for four hours before addition of inhibitor compounds. Different concentrations of inhibitor compounds were added in 0.5% (v/v) dimethylsulfoxide (15 μL/well), and cells were incubated at 37° C. (5% CO2) for four to six days (depending on cell type). At the end of the incubation, MTT was added to a final concentration of 0.2 mg/mL, and cells were incubated for 4 hours more at 37° C. After centrifugation of the plates and removal of medium, the absorbance of the formazan (solubilized in dimethylsulfoxide) was measured at 540 nm. The concentration of inhibitor compound causing 50% inhibition of growth was determined from the linear portion of a semi-log plot of inhibitor concentration versus percentage inhibition. All results were compared to control cells treated only with 0.5% (v/v) dimethylsulfoxide.

[4] = HCT 116, MTT, 50% inhibition of growth, read-out: HCT 116 IC50
[5] = HCT 116, MTT, IC90, read-out: HCT 116 IC90
[6] = HCT-116, read-out: HCT 116 IC50 (uM)
[7] = HCT-116, read-out: HCT 116 IC90 (uM)

Sequence of CDK4/cyclin D3 (P11802 2-303 limits assumed): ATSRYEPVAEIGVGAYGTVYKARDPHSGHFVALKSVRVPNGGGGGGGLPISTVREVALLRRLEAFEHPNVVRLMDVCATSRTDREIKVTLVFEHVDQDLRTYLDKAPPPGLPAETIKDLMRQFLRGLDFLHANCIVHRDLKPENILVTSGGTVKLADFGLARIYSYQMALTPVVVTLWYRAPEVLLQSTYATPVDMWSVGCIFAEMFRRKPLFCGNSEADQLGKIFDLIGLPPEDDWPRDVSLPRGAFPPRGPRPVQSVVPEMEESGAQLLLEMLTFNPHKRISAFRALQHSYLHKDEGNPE
Sequence of CDK4/cyclin D3 (P30281 1-264 limits assumed, further chain): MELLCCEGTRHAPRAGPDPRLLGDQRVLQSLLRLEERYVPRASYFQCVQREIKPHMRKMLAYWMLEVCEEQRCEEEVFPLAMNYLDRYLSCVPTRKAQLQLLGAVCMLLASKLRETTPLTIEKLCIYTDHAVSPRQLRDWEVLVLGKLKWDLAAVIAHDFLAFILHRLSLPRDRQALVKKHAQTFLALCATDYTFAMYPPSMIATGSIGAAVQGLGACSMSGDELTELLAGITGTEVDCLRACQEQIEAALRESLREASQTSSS

Ki [1] [nM]	Ki [2] [nM]	IC50 [3, 4] [µM]	IC90 [3, 5] [µM]	Compound	IC50 [3, 6] [µM]	IC90 [3, 7] [µM]
1	55	0.49	1.6	c1ccc2c(-c3ccc4[nH]nc(-c5nc6c([nH]5)CCCC6)c4c3)cncc2c1 [Example 66, 4-[3-(4,5,6,7-Tetrahydro-1H-benzoimidazol-2-yl)-1H-indazol-5-yl]-isoquinoline]	–	–
1.4	9.8	0.4	1.3	Cc1cncc(-c2ccc3[nH]nc(-c4nc5ccccc5[nH]4)c3c2)c1C [Example 75]	–	–
27	150	0.5	0.5	Cc1c(-c2ccc3[nH]nc(-c4nc5ccccc5[nH]4)c3c2)cnc2ccccc12 [Example 76, 3-[3-(1H-Benzoimidazol-2-yl)-1H-indazol-5-yl]-4-methyl-quinoline]	–	–
0.38	5.8	0.31	0.5	Cc1c(O)cncc1-c1ccc2[nH]nc(-c3nc4ccccc4[nH]3)c2c1 [Example 77, 5-[3-(1H-Benzoimidazol-2-yl)-1H-indazol-5-yl]-4-methyl-pyridin-3-ol]	–	–
0.42	2.2	0.5	0.5	C(=N\n1cccc1)/c1n[nH]c2ccc(-c3cncc4ccccc34)cc12 [Example 79, (5-Isoquinolin-4-yl-1H-indazol-3-ylmethylene)-pyrrol-1-yl-amine]	–	–
4.9	0.8	–	0.21	CCNCc1cncc(-c2ccc3[nH]nc(-c4nc5c(SC)cccc5[nH]4)c3c2)c1C [Example 81, Ethyl-4-{methyl-5-[3-(4-methylsulfanyl-1H-benzoimidazol-2-yl)-1H-indazol-5-yl]-pyridin-3-ylmethyl}-amine]	–	–
1.9	4.2	0.16	0.42	Cc1c(CNCC(C)C)cncc1-c1ccc2[nH]nc(-c3nc4ccccc4[nH]3)c2c1 [Example 87, {5-[3-(1H-Benzoimidazol-2-yl)-1H-indazol-5-yl]-4-methyl-pyridin-3-ylmethyl}-isobutyl-amine]	–	–
1.4	3.5	> 0.5	> 0.5	Cc1c(CNCc2ccccc2)cncc1-c1ccc2[nH]nc(-c3nc4ccccc4[nH]3)c2c1 [Example 88, {5-[3-(1H-Benzoimidazol-2-yl)-1H-indazol-5-yl]-4-methyl-pyridin-3-ylmethyl}-benzyl-amine]	–	–
0.94	1	0.15	0.25	Cc1c(CNCCO)cncc1-c1ccc2[nH]nc(-c3nc4ccccc4[nH]3)c2c1 [Example 89, 2-({5-[3-(1H-Benzoimidazol-2-yl)-1H-indazol-5-yl]-4-methyl-pyridin-3-ylmethyl}-amino)-ethanol]	–	–
0.3	0.09	0.03	0.12	CNC(C)c1cccc2[nH]c(-c3n[nH]c4ccc(-c5cncc6ccccc56)cc34)nc12 (centres unmarked) [Example 90, {1-[2-(5-Isoquinolin-4-yl-1H-indazol-3-yl)-1H-benzoimidazol-4-yl]-ethyl}-methyl-amine]	–	–
2.8	7.5	0.34	> 0.5	Cc1c(CN2CCOCC2)cncc1-c1ccc2[nH]nc(-c3nc4ccccc4[nH]3)c2c1 [Example 91, 3-(1H-Benzoimidazol-2-yl)-5-(4-methyl-5-morpholin-4-ylmethyl-pyridin-3-yl)-1H-indazole]	–	–
2.7	7.8	0.18	0.5	Cc1c(CNC2CCCC2)cncc1-c1ccc2[nH]nc(-c3nc4ccccc4[nH]3)c2c1 [Example 92, {5-[3-(1H-Benzoimidazol-2-yl)-1H-indazol-5-yl]-4-methyl-pyridin-3-ylmethyl}-cyclopentyl-amine]	–	–
0.61	1.9	0.32	> 0.5	Cc1c(CNc2cccnc2)cncc1-c1ccc2[nH]nc(-c3nc4ccccc4[nH]3)c2c1 [Example 93, {5-[3-(1H-Benzoimidazol-2-yl)-1H-indazol-5-yl]-4-methyl-pyridin-3-ylmethyl}-pyridin-3-yl-amine]	–	–

Compound	Ki [1] [nM]	Ki [2] [nM]	IC50 [3, 4] [µM]	IC90 [3, 5] [µM]	IC50 [3, 6] [µM]	IC90 [3, 7] [µM]
Cc1nc(-c2n[nH]c3ccc(-c4cncc5ccccc45)cc23)[nH]c1-c1ccccc1 [Example 67, 4-[3-(4-Methyl-5-phenyl-1H-imidazol-2-yl)-1H-indazol-5-yl]-isoquinoline]	16	220	–	–	2	4.7
Cc1c(CNC(C)C)cncc1-c1ccc2[nH]nc(-c3nc4ccccc4[nH]3)c2c1 [Example 78, {5-[3-(1H-Benzoimidazol-2-yl)-1H-indazol-5-yl]-4-methyl-pyridin-3-ylmethyl}-isopropyl-amine]	0.7	5.5	–	–	0.085	0.22
